In patent publication US10364247B2, “Preparation and use of novel protein kinase inhibitors” (Ruijin Hospital Affiliated to Shanghai Jiao Tong University …, priority 2015, dated 2019):

Experiments:
Assay type in all cases: cell-based, murine
BaF3-KRASD12 = assay: Oncogenic RAS dependent cell proliferation (CellTiter Glo); details: Mus musculus, BaF3-KRASD12 cells, 48 hours, read-out: KRas-BaF3 IC50
Method: (§1) The BaF/3 cell line transformed with oncogenic NRAS or KRAS (BaF/3-NRASD12 or BaF/3-KRASD12) and the parental BaF/3 cells were used to measure the abilities of compounds of the invention to suppress RAS transformation (Table 5). Cells were seeded at a density of 5000 cells/well into 96-well plates. […] The background control wells to which media with no cells added and the vehicle control wells were included on each plate in triplicate. Cell viability was determined using CellTiter Glo Assay (Promega) according to manufacture's instruction with a minor modification of diluting 1 part CellTiter Glo reagent to 4 parts phosphate buffered saline (PBS) before use. The luminescence value was read out by an Envision (PerkinElmer).

BaF3-NRASD12 = assay: as above; details: Mus musculus, BaF3-NRASD12 cells, 48 hours, read-out: NRas-BaF3 IC50
Method: as §1

BaF3-BCR/ABL = biological target: T1, BaF3-BCR/ABL (Homo sapiens, UniProt P00519); assay: Antiproliferative activity, kinase-dependent Ba/F3 cells (MTT/MTS); details: 48 hours, cell viability, read-out: BCR/ABL IC50
T1 construct: fused on or other part: P11274 (Breakpoint cluster region protein)
Method: (§2) Following up on the kinome data, the ability of compounds disclosed in the present invention to inhibit proliferation of cells that are dependent on selected protein kinases was tested. […] In addition, compounds were assayed to measure their capacity to inhibit TIE1, LYN, EML4-ALK, INSR and HCK kinases.
(§3) The murine cell line used is the BaF/3 cell line transformed with BCR/ABL cDNA (BaF/3-p210) or BCR/ABL-T315I mutant (Ba/F3-p210-T315I). These cells are maintained in RPMI/10% fetal calf serum (RPMI/FCS) supplemented with penicillin 50 μg/mL, streptomycin 50 μg/mL and L-glutamine […]. Untransformed BaF/3 cells (Wt-BaF/3) are similarly maintained with the addition of 15% of WEHI conditioned medium as a source of IL3.
(§4) Cells were seeded at a density of 20,000 cells/well into 96-well plates.
(§5) The background control wells to which media with no cells added and the vehicle control wells were included on each plate in triplicate. Cell viability was determined using MTT (Sigma, St. Louis, Mo., USA) and MTS (Promega, Madison, Wis., USA), according to the manufacturer's instructions. Results were analyzed using GraphPad Prism 5.0 (GraphPad Software, San Diego, Calif.) and IC50 values were calculated from cell viability dose-response curves and defined as the concentration of compound needed to reduce cell viability to 50% of a vehicle control (DMSO) (Table 3).

Wt-BaF3 = assay: Parental Ba/F3 cell proliferation (CellTiter Glo); details: Mus musculus, parental BaF/3 cells, 48 hours
Method: as §3, §1

BaF3-TEL-TIE1 = biological target: T2, BaF3-TEL-TIE1 (Homo sapiens, UniProt P35590); assay: Antiproliferative activity, kinase-dependent Ba/F3 cells (MTT/MTS); details: 48 hours, cell viability, read-out: tel-TIE1 IC50
T2 construct: fused on or other part: P41212 (Transcription factor ETV6)
T2 sequence (P35590 whole entry, change not shown, the tested form may be a part): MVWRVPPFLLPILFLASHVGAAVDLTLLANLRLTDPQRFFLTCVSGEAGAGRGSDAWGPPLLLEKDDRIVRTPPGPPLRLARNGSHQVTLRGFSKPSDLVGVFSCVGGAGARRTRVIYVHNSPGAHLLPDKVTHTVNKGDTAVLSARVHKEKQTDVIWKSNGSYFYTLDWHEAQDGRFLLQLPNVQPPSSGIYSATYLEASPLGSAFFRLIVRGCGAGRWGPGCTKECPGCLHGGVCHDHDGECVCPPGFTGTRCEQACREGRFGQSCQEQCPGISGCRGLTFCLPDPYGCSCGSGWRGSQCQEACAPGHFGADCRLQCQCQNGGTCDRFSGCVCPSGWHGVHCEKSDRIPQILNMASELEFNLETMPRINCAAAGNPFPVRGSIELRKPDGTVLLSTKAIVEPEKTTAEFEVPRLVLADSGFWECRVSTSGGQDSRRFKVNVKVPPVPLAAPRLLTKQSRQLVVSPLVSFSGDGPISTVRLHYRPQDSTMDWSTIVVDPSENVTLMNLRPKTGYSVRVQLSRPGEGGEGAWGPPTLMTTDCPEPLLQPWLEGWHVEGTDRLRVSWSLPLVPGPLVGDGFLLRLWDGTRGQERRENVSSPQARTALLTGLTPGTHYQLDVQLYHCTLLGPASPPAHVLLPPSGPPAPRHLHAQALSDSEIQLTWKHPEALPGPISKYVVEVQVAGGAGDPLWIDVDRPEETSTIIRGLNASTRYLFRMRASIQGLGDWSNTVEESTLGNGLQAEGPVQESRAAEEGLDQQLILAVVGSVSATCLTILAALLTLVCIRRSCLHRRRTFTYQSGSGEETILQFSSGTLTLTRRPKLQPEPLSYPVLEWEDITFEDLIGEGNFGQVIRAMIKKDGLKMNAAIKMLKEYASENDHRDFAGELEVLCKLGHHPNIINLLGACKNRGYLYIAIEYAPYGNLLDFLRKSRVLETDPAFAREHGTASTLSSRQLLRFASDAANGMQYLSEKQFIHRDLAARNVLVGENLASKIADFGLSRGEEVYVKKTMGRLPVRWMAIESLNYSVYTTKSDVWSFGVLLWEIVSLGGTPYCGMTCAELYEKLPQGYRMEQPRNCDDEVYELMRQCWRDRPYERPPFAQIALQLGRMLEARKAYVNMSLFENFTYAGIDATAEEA
Method: as §2, §3, §4, §5
(§6) Cell proliferation assays of compounds of the invention against TIE1, LYN, EML4-ALK, INSR and Hck were conducted using identical methods as described above for BCR/ABL, except that BaF3-TEL-TIE1, BaF3-TEL-LYN, BaF3-EML4-ALK, BaF3-TEL-INSR, and BaF3-TEL-HCK are used instead of BaF3-BCR/ABL (Table 3 and 4).

BaF3-EML4-ALK = biological target: T3, BaF3-EML4-ALK (Homo sapiens, UniProt Q9UM73); assay: as above; details: 48 hours, cell viability, read-out: EML4-ALK IC50
T3 construct: fused on or other part: Q9HC35 (Echinoderm microtubule-associated protein-like 4)
T3 sequence (Q9UM73 whole entry, change not shown, the tested form may be a part): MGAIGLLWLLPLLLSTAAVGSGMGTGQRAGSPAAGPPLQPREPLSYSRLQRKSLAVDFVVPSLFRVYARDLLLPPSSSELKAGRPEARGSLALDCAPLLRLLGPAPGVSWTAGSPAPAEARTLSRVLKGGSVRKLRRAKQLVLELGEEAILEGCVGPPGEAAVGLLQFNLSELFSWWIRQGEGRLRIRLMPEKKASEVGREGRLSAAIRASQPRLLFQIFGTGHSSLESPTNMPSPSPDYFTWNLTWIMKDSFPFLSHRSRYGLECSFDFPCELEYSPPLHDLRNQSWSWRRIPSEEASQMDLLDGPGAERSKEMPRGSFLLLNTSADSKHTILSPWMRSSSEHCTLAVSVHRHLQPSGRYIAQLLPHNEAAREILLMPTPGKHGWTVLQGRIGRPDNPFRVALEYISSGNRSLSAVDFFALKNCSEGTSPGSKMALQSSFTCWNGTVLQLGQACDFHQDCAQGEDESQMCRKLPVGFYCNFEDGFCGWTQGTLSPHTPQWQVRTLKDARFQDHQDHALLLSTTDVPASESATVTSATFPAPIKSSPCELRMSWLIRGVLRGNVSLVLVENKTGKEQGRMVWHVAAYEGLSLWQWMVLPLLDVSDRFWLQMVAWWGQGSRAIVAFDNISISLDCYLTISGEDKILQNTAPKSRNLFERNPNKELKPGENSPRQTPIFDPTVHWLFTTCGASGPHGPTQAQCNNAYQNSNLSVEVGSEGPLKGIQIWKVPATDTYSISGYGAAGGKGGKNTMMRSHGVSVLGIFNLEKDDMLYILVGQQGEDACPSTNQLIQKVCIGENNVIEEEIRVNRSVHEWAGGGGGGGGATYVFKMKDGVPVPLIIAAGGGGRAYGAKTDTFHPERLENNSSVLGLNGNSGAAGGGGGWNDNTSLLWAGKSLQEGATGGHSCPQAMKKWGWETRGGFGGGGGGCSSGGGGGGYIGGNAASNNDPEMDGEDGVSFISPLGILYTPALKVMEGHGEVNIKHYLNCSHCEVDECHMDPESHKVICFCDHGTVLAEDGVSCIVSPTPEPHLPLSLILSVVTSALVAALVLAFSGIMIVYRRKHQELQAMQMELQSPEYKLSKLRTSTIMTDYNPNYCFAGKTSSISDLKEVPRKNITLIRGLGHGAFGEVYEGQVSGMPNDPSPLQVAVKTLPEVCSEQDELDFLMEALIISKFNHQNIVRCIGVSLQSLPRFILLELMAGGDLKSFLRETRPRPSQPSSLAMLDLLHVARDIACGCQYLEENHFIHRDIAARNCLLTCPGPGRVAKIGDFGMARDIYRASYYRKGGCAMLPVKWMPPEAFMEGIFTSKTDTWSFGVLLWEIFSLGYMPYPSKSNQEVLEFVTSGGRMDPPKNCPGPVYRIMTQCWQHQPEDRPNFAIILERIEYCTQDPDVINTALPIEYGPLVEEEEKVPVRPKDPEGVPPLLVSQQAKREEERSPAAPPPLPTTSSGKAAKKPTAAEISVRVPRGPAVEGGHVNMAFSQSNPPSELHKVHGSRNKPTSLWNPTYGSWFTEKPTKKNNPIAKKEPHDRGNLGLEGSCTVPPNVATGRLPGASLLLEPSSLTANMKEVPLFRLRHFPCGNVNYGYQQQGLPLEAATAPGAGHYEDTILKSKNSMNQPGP
Method: as §2, §3, §4, §5, §6

BaF3-TEL-HCK = biological target: T4, BaF3-TEL-HCK (Homo sapiens, UniProt P08631); assay: as above; details: 48 hours, cell viability, read-out: Tel-HCK IC50
T4 construct: fused on or other part: P41212 (Transcription factor ETV6)
T4 sequence (P08631 whole entry, change not shown, the tested form may be a part): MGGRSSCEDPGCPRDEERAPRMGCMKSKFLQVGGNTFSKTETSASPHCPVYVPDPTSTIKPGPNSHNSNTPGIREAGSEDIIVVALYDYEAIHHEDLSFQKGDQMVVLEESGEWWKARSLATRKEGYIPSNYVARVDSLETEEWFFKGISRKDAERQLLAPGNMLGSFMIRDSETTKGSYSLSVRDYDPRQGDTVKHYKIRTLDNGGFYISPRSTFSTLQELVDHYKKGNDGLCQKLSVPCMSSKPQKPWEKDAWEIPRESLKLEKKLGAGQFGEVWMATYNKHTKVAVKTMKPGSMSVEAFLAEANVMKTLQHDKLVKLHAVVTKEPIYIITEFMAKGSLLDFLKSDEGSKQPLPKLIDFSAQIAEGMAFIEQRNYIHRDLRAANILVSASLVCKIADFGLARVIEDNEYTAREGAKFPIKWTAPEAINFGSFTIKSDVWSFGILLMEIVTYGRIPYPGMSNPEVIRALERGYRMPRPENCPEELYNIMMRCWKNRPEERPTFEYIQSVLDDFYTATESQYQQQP
Method: as §2, §3, §4, §5, §6

BaF3-TEL-LYN = biological target: T5, BaF3-TEL-LYN (Homo sapiens, UniProt P07948); assay: as above; details: 48 hours, cell viability, read-out: tel-LYN IC50
T5 construct: fused on or other part: P41212 (Transcription factor ETV6)
Method: as §2, §3, §4, §5, §6

BaF3-BCR/ABL-T315I = biological target: T6, BaF3-BCR/ABL-T315I (Homo sapiens, UniProt P00519, T315I, cells depend on it); assay: as above; details: 48 hours, cell viability, read-out: BCR/ABL T315I IC50
T6 construct: fused on or other part: P11274 (Breakpoint cluster region protein)
Method: as §2, §3, §4, §5

BaF3-TEL-INSR = biological target: T7, BaF3-TEL-INSR (Homo sapiens, UniProt P06213); assay: as above; details: 48 hours, cell viability, read-out: Tel-INSR IC50
T7 construct: fused on or other part: P41212 (Transcription factor ETV6)
T7 sequence (P06213 whole entry, stated change not applied, the tested form may be a part): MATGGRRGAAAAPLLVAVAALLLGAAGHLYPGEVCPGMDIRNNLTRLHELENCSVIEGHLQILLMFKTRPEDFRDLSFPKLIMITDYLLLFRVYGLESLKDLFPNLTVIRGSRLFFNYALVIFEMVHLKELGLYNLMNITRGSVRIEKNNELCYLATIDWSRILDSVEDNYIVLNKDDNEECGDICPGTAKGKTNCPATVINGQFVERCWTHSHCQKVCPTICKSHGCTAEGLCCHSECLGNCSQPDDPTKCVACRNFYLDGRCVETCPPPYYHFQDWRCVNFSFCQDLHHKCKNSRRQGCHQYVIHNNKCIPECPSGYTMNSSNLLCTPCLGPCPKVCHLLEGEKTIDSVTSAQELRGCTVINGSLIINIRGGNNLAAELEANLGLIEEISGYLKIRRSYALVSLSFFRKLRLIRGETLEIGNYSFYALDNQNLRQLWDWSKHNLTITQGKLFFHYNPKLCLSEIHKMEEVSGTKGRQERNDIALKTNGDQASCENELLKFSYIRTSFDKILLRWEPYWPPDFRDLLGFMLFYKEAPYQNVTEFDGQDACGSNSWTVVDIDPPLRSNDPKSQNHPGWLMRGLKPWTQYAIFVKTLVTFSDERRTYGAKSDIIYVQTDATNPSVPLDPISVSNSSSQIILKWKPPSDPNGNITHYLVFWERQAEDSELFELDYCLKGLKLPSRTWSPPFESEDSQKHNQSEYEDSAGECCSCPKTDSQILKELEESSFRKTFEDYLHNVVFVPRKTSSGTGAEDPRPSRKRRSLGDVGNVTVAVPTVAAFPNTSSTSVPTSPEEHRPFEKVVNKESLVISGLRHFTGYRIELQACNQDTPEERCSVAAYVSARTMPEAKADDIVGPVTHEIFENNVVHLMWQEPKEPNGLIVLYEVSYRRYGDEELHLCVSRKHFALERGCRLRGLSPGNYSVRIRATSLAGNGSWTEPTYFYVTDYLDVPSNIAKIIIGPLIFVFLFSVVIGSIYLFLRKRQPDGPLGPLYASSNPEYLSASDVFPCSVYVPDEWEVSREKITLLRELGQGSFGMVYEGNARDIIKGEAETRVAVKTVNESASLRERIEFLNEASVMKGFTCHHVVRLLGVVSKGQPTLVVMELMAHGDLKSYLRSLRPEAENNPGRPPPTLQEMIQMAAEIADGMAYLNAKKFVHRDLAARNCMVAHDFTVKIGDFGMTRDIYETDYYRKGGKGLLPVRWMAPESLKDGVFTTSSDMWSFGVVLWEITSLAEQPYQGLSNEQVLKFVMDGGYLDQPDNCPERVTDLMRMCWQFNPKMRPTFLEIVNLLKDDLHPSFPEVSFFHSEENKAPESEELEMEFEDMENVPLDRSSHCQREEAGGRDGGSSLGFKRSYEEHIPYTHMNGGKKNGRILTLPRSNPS
Method: as §2, §3, §4, §5, §6

SMILES	IC50 (BaF3-KRASD12)	IC50 (BaF3-NRASD12)	GI50 (BaF3-BCR/ABL)	IC50 (Wt-BaF3)	GI50 (BaF3-TEL-TIE1)	GI50 (BaF3-EML4-ALK)	GI50 (BaF3-TEL-HCK)	GI50 (BaF3-TEL-LYN)	GI50 (BaF3-BCR/ABL-T315I)	GI50 (BaF3-TEL-INSR)
Cc1ccc(Nc2ncc3c(n2)N(c2ccccc2)CN(c2cc(NC(=O)c4cccc(C(F)(F)F)c4)ccc2C)C3)cn1 [IB-4, N-(4-methyl-3-(7-((6-methylpyridin-3-yl)amino)-1-phenyl-1,4-dihydropyrimido[4,5-d]pyrimidin-3(2H)-yl)phenyl)-3-(trifluoromethyl)benzamide]	5360 nM	4930 nM	669 nM	17100 nM	3680 nM	> 10000 nM	4610 nM	4110 nM		
CCN(CC)c1ccc(Nc2ncc3c(n2)N(C)CN(c2cc(NC(=O)c4cccc(C(F)(F)F)c4)ccc2C)C3)cn1 [IA-12, N-(3-(7-((6-(diethylamino)pyridin-3-yl)amino)-1-methyl-1,4-dihydropyrimido[4,5-d]pyrimidin-3(2H)-yl)-4-methylphenyl)-3-(trifluoromethyl)benzamide]	1820 nM	2300 nM	205 nM	4110 nM	1350 nM	3190 nM	3070 nM	1160 nM	4500 nM	977 nM
Cc1ccc(NC(=O)c2cccc(C(F)(F)F)c2)cc1N1Cc2cnc(Nc3cnn(C)c3)nc2N(C)C1 [IA-10, N-(4-methyl-3-(1-methyl-7-((1-methyl-1H-pyrazol-4-yl)amino)-1,4-dihydropyrimido[4,5-d]pyrimidin-3(2H)-yl)phenyl)-3-(trifluoromethyl)benzamide]	4600 nM	2900 nM	0.251 nM	11800 nM	2320 nM	4640 nM	1770 nM	1430 nM	2760 nM	
Cc1cc(Nc2ncc3c(n2)N(C)CN(c2cc(NC(=O)c4cccc(C(F)(F)F)c4)ccc2C)C3)n(C)n1 [IA-11, N-(3-(7-((1,3-dimethyl-1H-pyrazol-5-yl)amino)-1-methyl-1,4-dihydropyrimido[4,5-d]pyrimidin-3(2H)-yl)-4-methylphenyl)-3-(trifluoromethyl)benzamide]	1490 nM	1020 nM	7.96 nM	13500 nM	736 nM	2220 nM	1390 nM	927 nM	1760 nM	2280 nM
Cc1ccc(NC(=O)c2cccc(C(F)(F)F)c2)cc1N1Cc2cnc(Nc3ccc(N4CCC(O)CC4)nc3)nc2N(C)C1 [IA-13, N-(3-(7-((6-(4-hydroxypiperidin-1-yl)pyridin-3-yl)amino)-1-methyl-1,4-dihydropyrimido[4,5-d]pyrimidin-3(2H)-yl)-4-methylphenyl)-3-(trifluoromethyl)benzamide]	402 nM	501 nM	5.85 nM	2340 nM	289 nM	1870 nM	192 nM	132 nM	226 nM	320 nM
Cc1ccc(Nc2ncc3c(n2)N(C2CCCC2)CN(c2cc(NC(=O)c4cccc(C(F)(F)F)c4)ccc2C)C3)cn1 [IB-3, N-(3-(1-cyclopentyl-7-((6-methylpyridin-3-yl)amino)-1,4-dihydropyrimido[4,5-d]pyrimidin-3(2H)-yl)-4-methylphenyl)-3-(trifluoromethyl)benzamide]	5840 nM	5970 nM	303 nM	9710 nM	3820 nM	5880 nM	3150 nM	3300 nM	9230 nM	
Cc1ccc(Nc2ncc3c(n2)N(C2CC2)CN(c2cc(NC(=O)c4cccc(C(F)(F)F)c4)ccc2C)C3)cn1 [IB-2, N-(3-(1-cyclopropyl-7-((6-methylpyridin-3-yl)amino)-1,4-dihydropyrimido[4,5-d]pyrimidin-3(2H)-yl)-4-methylphenyl)-3-(trifluoromethyl)benzamide]	1780 nM	1400 nM	53.8 nM	6030 nM	1090 nM	3130 nM	2090 nM	1200 nM	2900 nM	2160 nM
Cc1ccc(NC(=O)c2cccc(C(F)(F)F)c2)cc1N1Cc2cnc(NCCN(C)C)nc2N(C)C1 [IA-2, N-(3-(7-((2-(dimethylamino)ethyl)amino)-1-methyl-1,4-dihydropyrimido[4,5-d]pyrimidin-3(2H)-yl)-4-methylphenyl)-3-(trifluoromethyl)benzamide]	3980 nM	3380 nM	> 10000 nM	4540 nM	1590 nM	~2780 nM	2560 nM	1320 nM		1330 nM
CNc1ncc2c(n1)N(C)CN(c1cc(NC(=O)c3cccc(C(F)(F)F)c3)ccc1C)C2 [IA-3, N-(4-methyl-3-(1-methyl-7-(methylamino)-1,4-dihydropyrimido[4,5-d]pyrimidin-3(2H)-yl)phenyl)-3-(trifluoromethyl)benzamide]	6470 nM	11500 nM	1040 nM	12400 nM	5470 nM	6340 nM		4090 nM	> 10000 nM	
CONC(=O)c1ccc(C)c(N2Cc3cnc(Nc4ccc(C)nc4)nc3N(C)C2)c1 [IC-4, N-methoxy-4-methyl-3-(1-methyl-7-((6-methylpyridin-3-yl)amino)-1,4-dihydropyrimido[4,5-d]pyrimidin-3(2H)-yl)benzamide]	> 10000 nM	> 10000 nM	63.1 nM	> 10000 nM	> 10000 nM	> 10000 nM		> 10000 nM	> 10000 nM	
Cc1ccc(Nc2ncc3c(n2)N(C)CN(c2cc(C(=O)Nc4cccc(C(F)(F)F)c4)ccc2C)C3)cn1 [IC-1, 4-methyl-3-(1-methyl-7-((6-methylpyridin-3-yl)amino)-1,4-dihydropyrimido[4,5-d]pyrimidin-3(2H)-yl)-N-(3-(trifluoromethyl)phenyl)benzamide]	1690 nM	1570 nM	6.93 nM	5360 nM	91.2 nM	1650 nM		189 nM	196 nM	
Cc1ccc(NC(=O)c2cccc(C(F)(F)F)c2)cc1N1Cc2cnc(NCCN3CCOCC3)nc2N(C)C1 [IA-5, N-(4-methyl-3-(1-methyl-7-((2-morpholinoethyl)amino)-1,4-dihydropyrimido[4,5-d]pyrimidin-3(2H)-yl)phenyl)-3-(trifluoromethyl)benzamide]	3440 nM	3290 nM	1720 nM	6300 nM	3240 nM	4050 nM		2140 nM	2920 nM	
Cc1ccc(Nc2ncc3c(n2)N(C)CN(c2cc(C(=O)NCCN4CCOCC4)ccc2C)C3)cn1 [IC-3, 4-methyl-3-(1-methyl-7-((6-methylpyridin-3-yl)amino)-1,4-dihydropyrimido[4,5-d]pyrimidin-3(2H)-yl)-N-(2-morpholinoethyl)benzamide]	> 10000 nM	> 10000 nM	217 nM	> 10000 nM	> 10000 nM	> 10000 nM		> 10000 nM	> 10000 nM	
